Data published in PubChem BioAssay AID330 (DTP/NCI, 2004).
Values joined by “and” are separate entries in the source; they are usually repeats but may differ in a detail not shown here. Equal values may be shown once. Inconclusive results and toxic doses are left out. How the source made its calls: active means survival T/C of 150% or more; inactive means T/C below 125% in these data.

Test system: P388 leukemia ip, CD2F1 mice, survival T/C
Experiment: NCI In Vivo Anticancer Drug Screen. Data for tumor model P388 Leukemia (intraperitoneal) in CD2F1 (CDF1) mice
Settings: endpoint: median survival time, higher = longer survival
In short: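 Mice carrying the transplanted tumor received test compound or vehicle. Survival was recorded in each group, and the value is the treated-group measurement divided by that of the vehicle-treated control group.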

[1] = dose: 50.0 mg/kg/injection, schedule: Q01DX009 (ip), vehicle: saline with Tween-80
[2] = dose: 100.0 mg/kg/injection, schedule: Q01DX009 (ip), vehicle: saline with Tween-80
[3] = dose: 100.0 mg/kg/injection, schedule: Q01DX001 (ip), vehicle: saline with Tween-80
[4] = dose: 200.0 mg/kg/injection, schedule: Q01DX001 (ip), vehicle: saline with Tween-80
[5] = dose: 100.0 mg/kg/injection, schedule: Q04DX003 (ip), vehicle: saline with Tween-80
[6] = dose: 200.0 mg/kg/injection, schedule: Q04DX003 (ip), vehicle: saline with Tween-80
[7] = dose: 400.0 mg/kg/injection, schedule: Q04DX003 (ip), vehicle: saline with Tween-80
[8] = dose: 60.0 mg/kg/injection, schedule: Q01DX005 (ip), vehicle: saline with Tween-80
[9] = dose: 120.0 mg/kg/injection, schedule: Q01DX005 (ip), vehicle: saline with Tween-80
[10] = dose: 240.0 mg/kg/injection, schedule: Q01DX005 (ip), vehicle: saline with Tween-80
[11] = dose: 50.0 mg/kg/injection, schedule: Q01DX009 (ip), vehicle: other
[12] = dose: 100.0 mg/kg/injection, schedule: Q01DX009 (ip), vehicle: other
[13] = dose: 200.0 mg/kg/injection, schedule: Q01DX009 (ip), vehicle: saline with Tween-80
[14] = dose: 200.0 mg/kg/injection, schedule: Q01DX009 (ip), vehicle: other
[15] = dose: 50.0 mg/kg/injection, schedule: Q01DX009 (ip), vehicle: Klucel (hydroxypropylcellulose) (HPC)
[16] = dose: 100.0 mg/kg/injection, schedule: Q01DX009 (ip), vehicle: Klucel (hydroxypropylcellulose) (HPC)
[17] = dose: 200.0 mg/kg/injection, schedule: Q01DX009 (ip), vehicle: Klucel (hydroxypropylcellulose) (HPC)
[18] = dose: 50.0 mg/kg/injection, schedule: Q01DX009 (ip), vehicle: saline
[19] = dose: 100.0 mg/kg/injection, schedule: Q01DX009 (ip), vehicle: saline
[20] = dose: 200.0 mg/kg/injection, schedule: Q01DX009 (ip), vehicle: saline

Measured: T/C

Cc1c(C)c(C)c2c(c1C)C(=O)c1c3c(c4c(c1C2=O)CCCC4)CCCC3
inactive: dose: 25.0 mg/kg/injection, schedule: Q01DX009 (ip), vehicle: saline with Tween-80 108 % of control | [1] 103 % of control | [2] 99 % of control

COc1ccc(/C=C/C(=O)c2cc(C(=O)O)c(OC)cc2OC)cc1OC
inactive: dose: 50.0 mg/kg/injection, schedule: Q01DX009 (ip), vehicle: suspension in saline 117 % of control and 120 % of control | dose: 100.0 mg/kg/injection, schedule: Q01DX009 (ip), vehicle: suspension in saline 123 % of control

Cc1ccc(S(=O)(=O)N/N=C/c2cc([N+](=O)[O-])ccc2O)cc1
inactive: dose: 12.5 mg/kg/injection, schedule: Q01DX005 (ip), vehicle: distilled water + Tween-80 93 % of control | dose: 25.0 mg/kg/injection, schedule: Q01DX005 (ip), vehicle: distilled water + Tween-80 100 % of control | dose: 50.0 mg/kg/injection, schedule: Q01DX005 (ip), vehicle: distilled water + Tween-80 112 % of control | dose: 100.0 mg/kg/injection, schedule: Q01DX005 (ip), vehicle: distilled water + Tween-80 105 % of control

CC1=C(I)C2(CCCCC2)OC1=O
inactive: [3] 101 % of control | [4] 94 % of control | dose: 400.0 mg/kg/injection, schedule: Q01DX001 (ip), vehicle: saline with Tween-80 93 % of control

Cn1nnnc1NN(c1nnnn1C)C1C=CCC=C1
inactive: [5] 99 % of control | [6] 97 % of control | [7] 98 % of control

COc1cc2c(cc1OC)C(C#N)(Cc1cccc3ccccc13)N(C(=O)c1ccccc1)C=C2 (stereo not given)
inactive: [8] 99 % of control | [9] 101 % of control | [10] 99 % of control

O=C1C=CC=C2C(=O)C(c3ccccc3)(c3ccccc3)[N+]([O-])=C12
inactive: dose: 50.0 mg/kg/injection, schedule: Q04DX002 (ip), vehicle: saline 100 % of control | dose: 100.0 mg/kg/injection, schedule: Q04DX002 (ip), vehicle: saline 98 % of control | dose: 200.0 mg/kg/injection, schedule: Q04DX002 (ip), vehicle: saline 111 % of control

C=CCc1ccc(O)c(OC)c1
inactive: [11] 101 % of control | [12] 107 % of control

Cc1cccc(-n2c(-c3ccc([N+](=O)[O-])cc3)csc2=NC(=O)c2cccc([N+](=O)[O-])c2)c1C
inactive: [1] 91 % of control | [2] 87 % of control | [13] 87 % of control

CC1CCP(c2ccccc2)C1 (stereo not given)
inactive: [3] 105 % of control | [4] 116 % of control

COC(=O)CNC(=O)C(Cc1c[nH]c2ccccc12)NC(=O)OC(C)(C)C (stereo not given)
inactive: dose: 12.5 mg/kg/injection, schedule: Q01DX009 (ip), vehicle: other 96 % of control | dose: 25.0 mg/kg/injection, schedule: Q01DX009 (ip), vehicle: other 89 % of control | [11] 89 % of control | [12] 90 % of control | [14] 97 % of control

NC(=O)Nc1n[nH]c(-c2ccccc2)n1
inactive: [5] 90 % of control | [6] 90 % of control | [7] 90 % of control

O=C(/C=C/c1ccc(OCc2ccccc2)cc1)c1ccccc1Cl
inactive: [1] 110 % of control and 95 % of control | [2] 110 % of control and 91 % of control | [13] 100 % of control | dose: 400.0 mg/kg/injection, schedule: Q01DX009 (ip), vehicle: saline with Tween-80 100 % of control

COc1ccc(C(O)(c2ccccc2)c2ccccc2)c(OC)c1
inactive: [15] 98 % of control | [16] 93 % of control | [17] 95 % of control

CN1CCCC(OC(=O)Oc2ccccc2)C1 (stereo not given)
inactive: dose: 50.0 mg/kg/injection, schedule: Q01DX001 (ip), vehicle: other 101 % of control | dose: 100.0 mg/kg/injection, schedule: Q01DX001 (ip), vehicle: other 100 % of control | dose: 200.0 mg/kg/injection, schedule: Q01DX001 (ip), vehicle: other 102 % of control | dose: 400.0 mg/kg/injection, schedule: Q01DX001 (ip), vehicle: other 99 % of control

Cc1nc(C(=O)N=C(N)N)c(N)nc1-c1ccccc1
inactive: dose: 15.0 mg/kg/injection, schedule: Q01DX005 (ip), vehicle: saline with Tween-80 106 % of control | dose: 30.0 mg/kg/injection, schedule: Q01DX005 (ip), vehicle: saline with Tween-80 104 % of control | [8] 100 % of control

COC1CCC(COS(=O)(=O)c2ccc(C)cc2)O1 (stereo not given)
inactive: [1] 105 % of control | [2] 100 % of control | [13] 103 % of control

CNc1ccc(O)cc1
inactive: dose: 5.0 mg/kg/injection, schedule: Q01DX009 (ip), vehicle: saline sonified 100 % of control | dose: 10.0 mg/kg/injection, schedule: Q01DX009 (ip), vehicle: saline sonified 104 % of control | dose: 20.0 mg/kg/injection, schedule: Q01DX009 (ip), vehicle: saline sonified 100 % of control

O=C(O)CSCCCCCSCC(=O)O
inactive: [18] 105 % of control | [19] 106 % of control | [20] 106 % of control

OCC1OC(n2cnc3c(NO)ncnc32)CC1O (stereo not given)
inactive: dose: 12.5 mg/kg/injection, schedule: Q01DX009 (ip), vehicle: Klucel (hydroxypropylcellulose) (HPC) 100 % of control | dose: 25.0 mg/kg/injection, schedule: Q01DX009 (ip), vehicle: Klucel (hydroxypropylcellulose) (HPC) 112 % of control | [15] 100 % of control | [16] 100 % of control

Cc1nc(Sc2nc3ccc([N+](=O)[O-])cc3s2)sc1C
inactive: [18] 87 % of control | [19] 96 % of control | [20] 105 % of control | dose: 400.0 mg/kg/injection, schedule: Q01DX009 (ip), vehicle: saline 96 % of control

CCOC(=O)C(CSC(c1ccccc1)(c1ccccc1)c1ccccc1)NC(=O)CCNC(=O)c1ccccc1 (stereo not given)
inactive: dose: 4.0 mg/kg/injection, schedule: Q01DX009 (ip), vehicle: other 96 % of control | dose: 8.0 mg/kg/injection, schedule: Q01DX009 (ip), vehicle: other 112 % of control | dose: 16.0 mg/kg/injection, schedule: Q01DX009 (ip), vehicle: other 101 % of control | dose: 32.0 mg/kg/injection, schedule: Q01DX009 (ip), vehicle: other 96 % of control | [11] 104 % of control | dose: 64.0 mg/kg/injection, schedule: Q01DX009 (ip), vehicle: other 98 % of control | [12] 95 % of control | [14] 90 % of control | dose: 400.0 mg/kg/injection, schedule: Q01DX009 (ip), vehicle: other 95 % of control

Cc1c(-c2ccccc2)nc(N(C)C)oc1=O
inactive: [8] 105 % of control | [9] 101 % of control | [10] 100 % of control

CCCSCCCC(=O)O
inactive: [15] 100 % of control | [16] 100 % of control | [17] 104 % of control

CCOC(=O)/C(C#N)=C1/SC=C(N)N1c1ccccc1
inactive: dose: 50.0 mg/kg/injection, schedule: Q01DX005 (ip), vehicle: Klucel (hydroxypropylcellulose) (HPC) 98 % of control | dose: 100.0 mg/kg/injection, schedule: Q01DX005 (ip), vehicle: Klucel (hydroxypropylcellulose) (HPC) 94 % of control | dose: 200.0 mg/kg/injection, schedule: Q01DX005 (ip), vehicle: Klucel (hydroxypropylcellulose) (HPC) 91 % of control
